The values that follow come from BindingDB's records for doi:10.3109/14756366.2010.528415 (Khyber Medical College, 2011).

In the experiment the target is Urease (Canavalia ensiformis, UniProt P07374). Description: Urease Inhibition Assay. As to the method: Reaction mixtures comprising 25 μL of enzyme (jack bean urease) solution and 55 μL of buffers containing 100 mM urea were incubated with 5 μL of test compounds (0.5 mM concentration) at 30°C for 15 min in 96-well plates. Urease activity was determined by measuring ammonia production using the indophenol method as described by weather burn14. Briefly, 45 μL each phenol reagent (1% w/v phenol and 0.005% w/v sodium nitroprusside) and 70 μL of alkali reagent (0.5% w/v NaOH and0.1% active chloride NaOCl) were added to each well. The increasing absorbance at 630 nm was measured after 50 min, using a microplate reader (Molecular Device). All reactions were performed in triplicate in a final volume of 200 μL.
Urease, sequence (P07374 whole entry): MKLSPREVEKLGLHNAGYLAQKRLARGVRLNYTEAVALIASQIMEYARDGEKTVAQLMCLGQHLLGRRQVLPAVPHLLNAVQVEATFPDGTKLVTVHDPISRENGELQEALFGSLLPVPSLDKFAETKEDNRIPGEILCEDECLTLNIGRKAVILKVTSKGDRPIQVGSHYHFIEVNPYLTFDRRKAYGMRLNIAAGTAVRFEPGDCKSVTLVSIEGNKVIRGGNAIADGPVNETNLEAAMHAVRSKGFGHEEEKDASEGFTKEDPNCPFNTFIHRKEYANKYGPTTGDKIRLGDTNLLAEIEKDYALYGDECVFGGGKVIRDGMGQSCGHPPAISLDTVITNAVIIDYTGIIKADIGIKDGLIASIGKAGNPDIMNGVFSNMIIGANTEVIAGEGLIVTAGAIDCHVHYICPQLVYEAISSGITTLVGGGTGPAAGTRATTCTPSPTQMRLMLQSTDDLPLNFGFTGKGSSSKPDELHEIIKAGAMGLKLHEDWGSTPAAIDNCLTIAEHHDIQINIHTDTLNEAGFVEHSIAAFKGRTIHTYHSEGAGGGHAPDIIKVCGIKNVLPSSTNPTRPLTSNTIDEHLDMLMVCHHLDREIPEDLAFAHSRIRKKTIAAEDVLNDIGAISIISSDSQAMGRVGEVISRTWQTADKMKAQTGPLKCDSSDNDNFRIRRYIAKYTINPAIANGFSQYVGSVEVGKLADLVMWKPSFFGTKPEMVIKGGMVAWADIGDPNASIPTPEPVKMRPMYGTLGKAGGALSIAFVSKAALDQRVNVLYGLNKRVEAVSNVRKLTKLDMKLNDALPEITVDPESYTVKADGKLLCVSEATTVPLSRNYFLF

A word on the IC50: it is the concentration needed to halve the response being measured. Lower therefore signals higher potency. On to `CC(C)CCCCc1ccc(O[C@@H]2OC(CO)[C@H](O)[C@@H](O)C2O)cc1` (some centres not stated) [Indigoferin-B (2)], for which the IC50 is 29.7 µM.

As to `CC(O)CCCCC(=O)c1c(O)cc(O)cc1O` (configuration not stated) [Indigoferin-C (3)], the half-maximal inhibitory concentration (IC50) came to 23.3 µM.
